{"source": "paper PMC8100446", "about": "“Perillaldehyde Inhibition of cGAS Reduces dsDNA-Induced Interferon Response” (Frontiers in Immunology, 2021)", "biological_target": "T1, cyclic GMP-AMP synthase (cGAS) (Homo sapiens, UniProt Q8N884)", "T1 construct": "purified recombinant full-length cGAS", "T1 sequence (Q8N884 whole entry)": "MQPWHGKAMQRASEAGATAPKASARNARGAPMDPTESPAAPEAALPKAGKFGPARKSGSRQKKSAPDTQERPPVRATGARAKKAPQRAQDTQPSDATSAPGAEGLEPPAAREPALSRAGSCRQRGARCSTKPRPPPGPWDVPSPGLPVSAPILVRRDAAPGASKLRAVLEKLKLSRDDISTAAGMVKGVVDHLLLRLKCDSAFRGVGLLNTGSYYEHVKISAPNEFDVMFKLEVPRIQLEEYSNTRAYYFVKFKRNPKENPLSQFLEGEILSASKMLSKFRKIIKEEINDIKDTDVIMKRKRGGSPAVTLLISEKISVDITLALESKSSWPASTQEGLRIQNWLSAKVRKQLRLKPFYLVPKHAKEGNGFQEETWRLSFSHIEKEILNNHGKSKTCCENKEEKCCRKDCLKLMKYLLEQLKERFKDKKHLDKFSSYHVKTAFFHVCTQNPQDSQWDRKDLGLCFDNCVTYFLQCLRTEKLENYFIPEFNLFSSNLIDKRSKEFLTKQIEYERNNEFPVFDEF", "experiment": "in vitro cGAS enzymatic assay, cGAMP production measured by HPLC-MS", "format": "biochemical"}
{"smiles": "C=C(C)C1CC=C(C=O)CC1", "note": "(stereo not shown) [PAH, perillaldehyde]", "values": [{"measurement": "IC50", "result": 31.3, "unit": "µM"}]}
